Measured values: the supplement of paper PMC10307832

Tests used:
Test in all cases: relative viability (nuclei count vs DMSO), 5 days (fraction); higher = more cells survive
[1] = compound: C=CCNC1=C2C[C@@H](C)C[C@H](OC)[C@H](O)[C@@H](C)/C=C(\C)[C@H](OC(N)=O)[C@@H](OC)/C=C\C=C(/C)C(=O)NC(=CC1=O)C2=O [17-AAG] + CCNC(=O)c1noc(-c2cc(C(C)C)c(O)cc2O)c1-c1ccc(CN2CCOCC2)cc1 [Luminespib] (partner 0.01 µM)
Procedure, shortened: (§1)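 Lung cancer cell lines in 1536-well plates were dosed by pin tool the day after seeding, either with one drug alone or with a fixed anchor-drug dose plus five library-drug doses (not always all listed) in √10 steps. After 5 days, cells were fixed and their nuclei stained in one step (final 0.05% Triton X-100, 1% formaldehyde, 1 ug/ml Hoechst), then counted on 4× images. Relative viability is the nuclei count in treated wells divided by that in vehicle wells. Values are medians of duplicate plates.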

[2] = compound: C=CCNC1=C2C[C@@H](C)C[C@H](OC)[C@H](O)[C@@H](C)/C=C(\C)[C@H](OC(N)=O)[C@@H](OC)/C=C\C=C(/C)C(=O)NC(=CC1=O)C2=O [17-AAG] + CS(=O)(=O)CCNCc1ccc(-c2ccc3ncnc(Nc4ccc(OCc5cccc(F)c5)c(Cl)c4)c3c2)o1 [Lapatinib] (partner 2 µM)
Procedure, shortened: as §1

[3] = compound: C=CCNC1=C2C[C@@H](C)C[C@H](OC)[C@H](O)[C@@H](C)/C=C(\C)[C@H](OC(N)=O)[C@@H](OC)/C=C\C=C(/C)C(=O)NC(=CC1=O)C2=O [17-AAG] + Nc1ncn([C@H]2C[C@H](O)[C@@H](CO)O2)c(=O)n1 [Decitabine] (partner 2 µM)
Procedure, shortened: as §1

[4] = compound: C=CCNC1=C2C[C@@H](C)C[C@H](OC)[C@H](O)[C@@H](C)/C=C(\C)[C@H](OC(N)=O)[C@@H](OC)/C=C\C=C(/C)C(=O)NC(=CC1=O)C2=O [17-AAG] + O=C(c1cc(Cc2n[nH]c(=O)c3ccccc23)ccc1F)N1CCN(C(=O)C2CC2)CC1 [Olaparib] (partner 8 µM)
Procedure, shortened: as §1

| Cell Line | relative viability ([1]; first compound 0.00128 µM) | relative viability ([1]; first compound 0.004048 µM) | relative viability ([1]; first compound 0.0128 µM) | relative viability ([1]; first compound 0.04048 µM) | relative viability ([1]; first compound 0.128 µM) | relative viability ([2]; first compound 0.00128 µM) | relative viability ([2]; first compound 0.004048 µM) | relative viability ([2]; first compound 0.0128 µM) | relative viability ([2]; first compound 0.04048 µM) | relative viability ([2]; first compound 0.128 µM) | relative viability ([3]; first compound 0.00128 µM) | relative viability ([3]; first compound 0.004048 µM) | relative viability ([3]; first compound 0.0128 µM) | relative viability ([3]; first compound 0.04048 µM) | relative viability ([3]; first compound 0.128 µM) | relative viability ([4]; first compound 0.00128 µM) | relative viability ([4]; first compound 0.004048 µM) | relative viability ([4]; first compound 0.0128 µM) | relative viability ([4]; first compound 0.04048 µM) | relative viability ([4]; first compound 0.128 µM) |
| --- | --- | --- | --- | --- | --- | --- | --- | --- | --- | --- | --- | --- | --- | --- | --- | --- | --- | --- | --- | --- |
| COR-L 105 | 0.858 | 0.708 | 0.671 | 0.432 | 0.224 | 0.352 | 0.333 | 0.344 | 0.406 | 0.306 | 0.655 | 0.701 | 0.699 | 0.484 | 0.504 | 0.601 | 0.71 | 0.778 | 0.55 | 0.515 |
| ABC-1 | 0.439 | 0.758 | 0.565 | 0.38 | 0.238 | 0.968 | 1.03 | 1.06 | 1.54 | 1.12 | 1.08 | 1.16 | 1.24 | 1.2 | 0.666 | 0.677 | 0.847 | 0.737 | 0.954 | 0.486 |
| HCC-15 | 0.301 | 0.23 | 0.131 | 0.128 | 0.102 | 0.795 | 0.625 | 0.351 | 0.225 | 0.106 | 0.599 | 0.557 | 0.174 | 0.136 | 0.137 | 0.726 | 0.71 | 0.306 | 0.332 | 0.15 |
| NCI-H2170 | 0.696 | 0.502 | 0.374 | 0.137 | 0.151 | 0.281 | 0.283 | 0.24 | 0.234 | 0.197 | 0.375 | 0.47 | 0.291 | 0.336 | 0.152 | 0.663 | 0.565 | 0.466 | 0.129 | 0.12 |
| RERF-LC-KJ | 1.06 | 0.595 | 0.398 | 0.357 | 0.325 | 0.957 | 0.901 | 1.04 | 0.508 | 0.297 | 0.66 | 0.447 | 0.225 | 0.27 | 0.202 | 0.954 | 0.648 | 0.291 | 0.249 | 0.216 |
| NCI-H1993 | 0.919 | 0.625 | 0.516 | 0.273 | 0.423 | 0.767 | 0.76 | 0.627 | 0.45 | 0.451 | 0.609 | 0.606 | 0.544 | 0.408 | 0.348 | 1.16 | 0.949 | 0.98 | 0.37 | 0.299 |
| NCI-H358 | 0.273 | 0.235 | 0.121 | 0.0893 | 0.0737 | 0.504 | 0.324 | 0.162 | 0.137 | 0.121 | 0.198 | 0.141 | 0.0682 | 0.0758 | 0.062 | 0.606 | 0.522 | 0.0873 | 0.0667 | 0.0637 |
| NCI-H1915 | 0.682 | 0.659 | 0.548 | 0.418 | 0.0942 | 0.883 | 1.06 | 0.894 | 0.571 | 0.0701 | 0.259 | 0.271 | 0.263 | 0.25 | 0.0807 | 0.263 | 0.268 | 0.233 | 0.129 | 0.0621 |
